Key:
[1] = molecular target: T1, mitochondrial Na+/Ca2+ exchanger (mNCE) (Cavia porcellus, UniProt H0V3X3); conditions: cited from earlier work
T1 construct: in normal cardiac myocytes, with [Na^+]i elevated artificially using the patch clamp technique, and in myocytes isolated from failing hearts; host or cells: isolated cardiac myocytes (endogenous protein)
T1 sequence (H0V3X3 27-580): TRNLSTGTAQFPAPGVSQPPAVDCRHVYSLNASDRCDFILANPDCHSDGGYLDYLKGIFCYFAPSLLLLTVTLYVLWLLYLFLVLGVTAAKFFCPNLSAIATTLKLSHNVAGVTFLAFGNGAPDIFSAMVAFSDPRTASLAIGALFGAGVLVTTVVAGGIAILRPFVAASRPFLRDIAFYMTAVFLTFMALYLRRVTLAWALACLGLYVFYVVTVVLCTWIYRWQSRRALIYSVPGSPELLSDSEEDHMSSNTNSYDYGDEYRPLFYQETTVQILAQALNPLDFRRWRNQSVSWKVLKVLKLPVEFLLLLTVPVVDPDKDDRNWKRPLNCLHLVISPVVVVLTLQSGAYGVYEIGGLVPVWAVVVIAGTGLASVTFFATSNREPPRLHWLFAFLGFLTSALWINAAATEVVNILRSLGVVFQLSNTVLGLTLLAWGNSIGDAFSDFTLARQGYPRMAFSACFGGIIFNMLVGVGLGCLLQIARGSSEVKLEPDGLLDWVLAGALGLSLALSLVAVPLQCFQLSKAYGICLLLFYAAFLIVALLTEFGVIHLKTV

aortic-banded animals [2] = test: Delayed sudden cardiac death model (aortic banding plus daily low dose isoproterenol), survival and echocardiography; assay type: in vivo, guinea pig
Excerpt: (§1) As provided herein, the presently disclosed subject matter investigated whether these mechanisms underlie sudden cardiac death (SCD) and contractile decompensation in hypertrophic heart failure in two novel guinea-pig models of combined ascending aortic constriction together with β-adrenergic stimulation and whether therapy via mNCE inhibition was effective. Accordingly, in some embodiments, the presently disclosed subject matter provides a therapeutic strategy for treating heart failure.
(§2) Two models were developed: acute SCD and delayed SCD. The acute SCD model used a high dose of isoproterenol (5 mg/kg) administered by a single intraperitoneal injection two days after ascending aortic banding; and the delayed SCD model used low dose isoproterenol (week one: 1 mg/kg; subsequent weeks: 2 mg/kg), administered by daily intraperitoneal injection over the course of five weeks after aortic banding. Additionally, a therapeutic regime comprised of chronic treatment with an inhibitor of mNCE, e.g., CGP-37157, mean dose approximately 40 μg/kg, administered by implantation of an osmotic pump in the abdominal cavity (delivery rate: 0.015 mg/kg/hr) for extended delivery of the compound was initiated.
The delayed SCD protocol was used to investigate the effect of chronic CGP-37157 treatment on mortality and the development of heart failure. Survival was extended using this protocol as compared with the acute SCD model. In the absence of CGP-37157, however, the death rate of the animals approached 60% by 30 days post-banding (see FIG. 10). In contrast, more than 78% of the animals survived in the group with CGP-37157 treatment (see FIG. 10).
Further, echocardiographic studies were carried out before surgery and at four weeks after aortic banding (see FIG. 11). […] In the group with CGP-37157 treatment, however, cardiac function was maintained.

aortic-banded animals [3] = test: Acute sudden cardiac death model (ascending aortic banding plus isoproterenol 5 mg/kg); assay type: in vivo, guinea pig; conditions: single dose 5 mg/kg isoproterenol i.p. two days after aortic banding; CGP-37157 by osmotic pump; 77% without CGP-37157
Excerpt: as §1, §2

[4] = tested on: Guinea pig ventricular myocytes; test: [Na+]i recording with SBFI in isolated cardiac myocytes; assay type: cell-based; conditions: ouabain at different concentrations, at rest or with 1-Hz stimulation
Description: Guinea pig ventricular myocytes were isolated by enzymatic digestion as described previously. O'Rourke, B., et al., “Oscillations of membrane current and excitability driven by metabolic oscillations in heart cells,” Science, 265(5174):962-966 (Aug. 12, 1994). Cells were suspended in Dulbecco's Modification of Eagle's Medium (DMEM) supplemented with 5% fetal bovine serum, 1% penicillin/streptomycin, and 15 mmol/L HEPES, pH 7.4, and stored in a 5% CO2 incubator at 37° C.
Cytosolic Ca^2+ ([Ca^2+]c), mitochondrial Ca^2+ ([Ca^2+]m), and [Na^+]i were measured with the fluorescent indicators indo-1, rhod-2, and sodium-binding benzofuran isophthalate (SBFI), respectively (Invitrogen, Carlsbad, Calif.), and mitochondrial NADH was measured as the cellular autofluorescence with 360-nm excitation/450-nm emission. Indo-1 was loaded into cell with the membrane permeable form, indo-1 AM. To minimize indo-1 loading into the mitochondrial compartment, cells were briefly incubated with indo-1 AM at room temperature for 20 min. Rhod-2 and SBFI experiments were carried out as previously described. Maack et al., supra, Liu and O'Rourke, supra. […]
Isolated ventricular myocytes were loaded into a heated field-stimulation chamber (Warner Instruments, Hamden, Conn.) at 37° C. on the stage of a fluorescence microscope (Nikon Eclipse TE300, Nikon Instruments, Inc., Melville, N.Y.). […]

Row | Structure (SMILES) | mitochondrial NADH production ([1]; cells with elevated [Na+]i) | mitochondrial Ca2+ retention capacity ([1]; inhibition of [Ca2+]m efflux) | animals survived (aortic-banded animals [2]; 30 days post-banding, daily isoproterenol, CGP-37157 by osmotic pump, death rate approached 60% without CGP-37157) | Fractional Shortening (FS) at baseline (aortic-banded animals [2]; CGP-37157-treated group, before surgery, n=6) | Fractional Shortening (FS) at four weeks after aortic banding (aortic-banded animals [2]; CGP-37157-treated group, n=6, without CGP-37157 FS decreased from 54.9 to 42.5) | left ventricular wall thickness (aortic-banded animals [2]; echocardiography four weeks after aortic banding versus before surgery) | death rate (aortic-banded animals [3]) [%] | [Na+]i [4]
1 | O=C1CSC(c2ccccc2Cl)c2cc(Cl)ccc2N1 (centres unmarked) [CGP-37157, 7-chloro-5-(2-chlorophenyl)-1,5-dihydro-4,1-benzothiazepin-2(3H)-one] | restores mitochondrial NADH production | increases mitochondrial Ca^2+ retention capacity | more than 78% | 54.0%±1.0 | 59.2%±1.8 | increased similarly in both groups | 20 | 
2 | C[C@@H]1O[C@@H](O[C@H]2C[C@@H](O)[C@]3(CO)[C@H]4[C@H](O)C[C@]5(C)[C@@H](C6=CC(=O)OC6)CC[C@]5(O)[C@@H]4CC[C@]3(O)C2)[C@H](O)[C@H](O)[C@H]1O [ouabain, 1β,3β,5β,11α,14,19-Hexahydroxycard-20(22)-enolide 3-(6-deoxy-α-L-mannopyranoside, reference compound] |  |  |  |  |  |  |  | elevated [Na^+]i monotonically in a dose-dependent way

Reference: US8791079B2, “Methods for treating heart failure by inhibiting the mitochondrial sodium-calcium exchanger (mNCE)” (priority 2009, dated 2014)
